# Measurements: patent US20250381110A1, “SKIN CARE COMPOSITION AND METHOD OF USING THE SAME” (THE PROCTER & GAMBLE COMPANY, priority 2024, published 2025)
# Where a name gives a salt, the structure may show the parent alone. Read-outs that look alike come from different tables or passages of the source.
# System: p62-dependent mitophagy
# Experiment: Luciferase-p62 assay (Fluc-p62 clearance) in mouse embryonic fibroblasts
# Format: cell-based
# Method: To identify p62-dependent materials which increase mitophagy, a Luciferase-p62 Assay was established. This method provides an approach to measure the ability of a material to modulate p62-dependent mitophagy by using an inducible firefly luciferase-p62 (Fluc-p62) reporter cell system. In this assay, p62 levels are driven by doxycycline treatment. After levels increased, expression of Fluc-p62 is turned off by removal of doxycycline, materials are then added and assessed for how they affect clearance of Fluc-p62 protein, which is proportionate to cellular mitophagy rates (Kelly et al.). The negative control is doxycycline induced Luc-p62 in the absence of compound or bioactive material treatment and in the presence of vehicle (DMSO).
# Test materials including bioactive materials were screened in mouse embryonic fibroblasts (MEFs, Harada et al.) expressing the TET-inducible p62-fluc construct as previously described (Brown et al.). […] Gibson assembly was used to insert firefly luciferase (Fluc) and p62 into the pCW57.1 backbone. Fluc, p62, and pCW57.1 were polymerase chain reaction (PCR) amplified using pfu polymerase (Life technologies) and Gibson assembly primers with 20 base pair (bp) overhangs. PCR products were separated by agarose gel electrophoreses, and fragments excised and purified before use in DNA assembly reaction with NEBuilder HiFi DNA Assembly kit (New England Biolabs). After the assembly, the reaction mix was transformed into NEB3040 Stable Competent Escherichia coli (New England Biolabs). After 24 hours growth at 31 degrees Celsius the plasmid was extracted using QIAprep Spin Miniprep kit (Qiagen). The plasmid was sequenced to confirm correct insertion of Fluc-p62. To generate MEFs stably expressing doxycycline inducible Fluc-p62, HEK293FT cells were transfected with Fluc-p62-pCW57.1 and the ViraPower Packaging Mix (Invitrogen) to produce lentivirus. MEFs were transduced with the obtained lentiviral stock following followed by selection with 1 microgram per milliliter puromycin.Fluc-p62expressing MEFs were maintained in DMEM supplemented with 10 percent fetal bovine serum (FBS), 100 units per milliliter penicillin/streptomycin, and 2 millimolar L-glutamine in a humidified atmosphere containing 5 percent carbon dioxide at 37 degrees Celsius. Cells were plated into white 96 well plates (2,000 cells per well with 100 microliters media) and allowed to settle for 24 hours. […] Subsequently, cells were treated with test materials for 48 hours in normal growth medium and analysed using ONE-Glo™+Tox Luciferase Reporter and Cell Viability Assay (Promega) by following the manufacturer's protocol.
# Test compositions and control compositions were prepared as described above in the Luciferase-p62 assay (Method 3) and tested accordingly. The compounds used in this example, as examples of bioactive materials, were from the APExBIO DiscoveryProbe™ Natural Product Library Plus (Houston, TX) and evaluated at equivalent concentrations (10 μM).
# Data are additionally calculated as percentage of activity relative to rapamycin, a benchmark control compound tested in the same experiment.
# [1] = Luciferase-p62 assay, mouse embryonic fibroblasts (MEFs), compounds at 10 μM
# [2] = percentage of Luciferase-p62 clearance relative to baseline (mean luminescence in the absence of doxycycline induction), MEFs, 10 μM
# [3] = percentage of activity relative to rapamycin tested in the same experiment at the same concentration, MEFs, 10 μM
Compound,Mean Luminescence [1],% Activity over baseline [2],% Activity relative to Rapamycin [3],Mean Luminescence,% Activity over baseline (10 µM),% Activity relative to Rapamycin (10 µM)
"O=c1ccn2c(n1)O[C@H]1[C@H](O)[C@@H](CO)O[C@H]12 [2,2′-Cyclouridine]",935.30,42.20%,76.03%,,,
CO/N=C(\C(=O)N[C@@H]1C(=O)N2C(C(=O)O)=C(Cn3ccc(=N)n3CCO)CS[C@H]12)c1csc(N)n1.O=S(=O)(O)O [Cefoselis Sulfate],937.12,42.09%,75.83%,,,
C[C@H]1CCC/C=C/[C@@H]2C[C@H](O)C[C@H]2[C@H](O)/C=C/C(=O)O1 [Brefeldin A],356.17,77.99%,140.52%,,,
COC(=O)[C@H]1[C@H]2C[C@@H]3c4[nH]c5cc(OC)ccc5c4CCN3C[C@H]2C[C@@H](OC(=O)c2cc(OC)c(OC)c(OC)c2)[C@@H]1OC [Reserpine hydrochloride],810.13,49.93%,89.97%,,,
O=C1c2cccc3c2[C@H](CCC3)CN1[C@@H]1CN2CCC1CC2 [Palonosetron HCl],915.97,43.39%,78.18%,,,
COc1c(C)c2c(c(O)c1C/C=C(\C)CCC(=O)O)C(=O)OC2 [Mycophenolic acid],821.72,49.22%,88.68%,,,
O=c1cc(-c2ccccc2)oc2c1ccc1ccccc12 [α-Naphthoflavone],781.48,51.70%,93.16%,,,
COc1cc(NS(=O)(=O)c2ccc(N)cc2)nc(OC)n1 [Sulfadimethoxine],821.82,49.21%,88.67%,,,
COc1cc(O)c(CC=C(C)C)c(O)c1C(=O)/C=C/c1ccc(O)cc1 [Xanthohumol],485.82,69.98%,126.08%,,,
NCCCNCCCCNCCCN [Spermine],720.40,55.48%,99.96%,,,
CC(C)C(=O)C(=O)O [Ketoisovaleric acid],921.08,43.08%,77.61%,,,
C/C(=C\CNc1ncnc2nc[nH]c12)CO [trans-Zeatin],994.70,38.53%,69.42%,,,
COc1ccc2cc3[n+](cc2c1O)CCc1cc2c(cc1-3)OCO2 [Berberrubine],766.18,52.65%,94.86%,,,
CC(=O)NCCc1c[nH]c2ccc(O)cc12 [N-Acetylserotonin],978.08,39.55%,71.27%,,,
C=C1CC[C@H](O)C/C1=C/C=C1\CCC[C@]2(C)[C@@H]([C@H](C)CCCC(C)C)CC[C@@H]12 [Vitamin D3],488.16,69.83%,125.82%,,,
CCN1C(=O)C=CC1=O [N-Ethylmaleimide (NEM)],668.28,58.70%,105.76%,,,
O=C(/C=C/c1ccc(O)cc1)CC(=O)/C=C/c1ccc(O)cc1 [Bisdemethoxycurcumin],355.33,78.04%,140.61%,,,
Clc1ccc(COC(Cn2ccnc2)c2ccc(Cl)cc2Cl)c(Cl)c1 (stereo not drawn) [Miconazole Nitrate],704.35,56.47%,101.75%,,,

Compound,Mean Luminescence [1],% Activity over baseline [2],% Activity relative to Rapamycin [3],Mean Luminescence,% Activity over baseline (10 µM),% Activity relative to Rapamycin (10 µM)
C=C(C)[C@H]1CC=C(C)C(=O)C1 [(S)-(+)-Carvone],802.50,50.40%,90.82%,,,
COC(=O)c1c2c(c3ccccc3c1O)OC(C)(C)C=C2 [Mollugin],709.65,56.14%,101.16%,,,
CC1=C(/C=C/C(C)=C/C=C/C(C)=C/C=O)C(C)(C)CCC1 [all-trans Retinal],967.12,40.23%,72.49%,,,
C=C(CC(=O)O)C(=O)O [Itaconic acid],640.97,60.39%,108.80%,,,
Cc1nc(Nc2ncc(C(=O)Nc3c(C)cccc3Cl)s2)cc(N2CCN(CCO)CC2)n1 [Dasatinib Monohydrate],410.49,74.63%,134.47%,,,
Oc1ccc(OC2CCCCO2)cc1 (stereo not drawn) [Deoxyarbutin],653.14,59.64%,107.45%,,,
C[C@@H]1C(=O)O[C@H]2C[C@@]34[C@H]5C[C@@H](C(C)(C)C)[C@]36[C@@H](OC(=O)[C@@H]6O)O[C@@]4(C(=O)O5)[C@]21O [Ginkgolide A],977.84,39.57%,71.29%,,,
CC(=O)CCc1ccc(O)cc1 [Raspberry ketone],696.39,56.96%,102.63%,,,
COC(=O)/C=C/C(=O)OC [Dimethyl Fumarate],786.79,51.38%,92.57%,,,
C[C@]12CC[C@@H]3c4ccc(O)cc4CC[C@H]3[C@@H]1CC[C@@H]2O [Estradiol],768.64,52.50%,94.59%,,,
C[C@]12CCC(=O)C=C1CC[C@@H]1[C@@H]2[C@@H](O)C[C@@]2(C)[C@H]1CC[C@]2(O)C(=O)COC(=O)CCC(=O)[O-].[Na+],927.92,42.65%,76.85%,,,
CC[C@H]1CN2CC[C@H]1C[C@@H]2[C@@H](O)c1ccnc2ccc(OC)cc12 [Hydroquinidine],958.47,40.77%,73.45%,,,
Oc1c(Cl)cc(Cl)c2cccnc12 [Chloroxine],272.45,83.16%,149.84%,,,
C[C@@H]1CC[C@@]2(OC1)O[C@H]1C[C@H]3[C@@H]4CC=C5C[C@@H](O)CC[C@]5(C)[C@H]4CC[C@]3(C)[C@H]1[C@@H]2C [Diosgenin],903.89,44.14%,79.53%,,,
Cl.NCCc1ccc(O)c(O)c1 [Dopamine HCl],,,,995.96,38.45%,69.28%
CCCNC(C)C(=O)Nc1ccccc1C (stereo not drawn) [Prilocaine],905.23,44.06%,79.38%,,,
CC1=C[C@]23C(=O)[C@@H](C=C(CO)[C@@H](O)[C@]2(O)[C@H]1O)[C@H]1[C@@H](C[C@H]3C)C1(C)C [Ingenol],930.73,42.48%,76.54%,,,
